Data as given in patent US9645154B2, “Method for detecting cancer cell” (ARKRAY, Inc., priority 2010, dated 2017).

Assays:
[1] = test system: human alveolar epithelial cancer cells (NCI-H358); assay: Aminolevulinic acid (with FeCl2 and ascorbic acid) labeling, fluorescence microscopy image analysis (positive rate); type: cell-based; conditions: hemolyzed, 0.3 mM, 60 min, 37° C., threshold value 212
From the text: (§1) The number of the cells was counted using a hemacytometer in accordance with the conventional method, and then 10^5 to 10^6 cells per sample (cell suspension) was aliquoted. The sample was centrifuged to remove the supernatant. Subsequently, aminolevulinic acid 5-AMINOLEVULINATE HYDROCHLORIDE (trade name, Cosmo Bio Co., Ltd., at the final concentration given in Table 7 or 8) dissolved in Dulbecco's PBS (+) and FeCl2 and ascorbic acid having the same concentration as that of aminolevulinic acid, respectively, were added thereto, and the cells were suspended well. The number of the cells was adjusted, and then the cells were added dropwise to a 384-well plate. The plate was centrifuged to spin down the cells. The image was captured with a fluorescence microscope (Nikon Corp.).
(§2) The wavelengths for the fluorescence filter set: EX (excitation wavelength): 402±7.5, DM: 430 or longer, BA (fluorescence wavelength): 625±15.
(§3) The acquired images were analyzed using an image analysis software NIS-ELEMENTS (trade name, Nikon Corp.) to evaluate the fluorescence intensity of the cell.
(§4) In a manner similar to Example 4, each of human breast adenocarcinoma cells (Cell line name: MCF-7; DS Pharma Biomedical Co., Ltd.), human colon adenocarcinoma cells (Cell line name: SW620; DS Pharma Biomedical Co., Ltd.), human prostate cancer cells (Cell line name: PC3; DS Pharma Biomedical Co., Ltd.), human alveolar epithelial cancer cells (Cell line name: NCI-H358; DS Pharma Biomedical Co., Ltd.), human gastric cancer cells (Cell line name: SNU-1; ATCC) and human fibrosarcoma cells (Cell line name: HT1080; DS Pharma Biomedical Co., Ltd.) was detected with aminolevulinic acid.

[2] = test system: human breast adenocarcinoma cells (MCF-7); assay: as above; type: cell-based; conditions: hemolyzed, 0.3 mM, 60 min, 37° C., threshold value 268
From the text: as §1, §2, §3, §4

[3] = test system: human colon adenocarcinoma cells (SW620); assay: as above; type: cell-based; conditions: hemolyzed, 0.3 mM, 60 min, 37° C., threshold value 207
From the text: as §1, §2, §3, §4

[4] = test system: human fibrosarcoma cells (HT1080); assay: as above; type: cell-based; conditions: hemolyzed, 0.3 mM, 60 min, 37° C., threshold value 203
From the text: as §1, §2, §3, §4

[5] = test system: Mixture of blood cells and PC3 cells; assay: Aminolevulinic acid labeling combined with anti-CD45/anti-CD34 and anti-EpCAM antibodies; type: cell-based, human; conditions: ALA: 0.3 mM, FeC12: 0.3 mM, Ascorbic acid: 0.3 mM, 37° C., 60 min, threshold value 216
From the text: Blood was collected from a human subject using a vacuum blood collection tube (with EDTA•2K). Blood cells were separated using HetaSep (STEMCELL Technologies) in accordance with the manufacturer's instructions.
In accordance with the conventional method, cultured human prostate cancer cell line (PC3, DS Pharma Biomedical Co., Ltd.) was harvested with trypsin (Invitrogen). The cell suspension of the harvested cancer cells was centrifuged, and the supernatant was removed. The cells were resuspended with Dulbecco's PBS (+) (Nissui Pharmaceutical Co., Ltd.) and centrifuged, and the supernatant was removed again.
The number of the cells in the suspension of the isolated blood cells was counted using a hemacytometer in accordance with the conventional method. Further, the number of the cells was also counted for the human prostate cancer cell line (PC3) in a similar manner, and the cells were added to the blood cell suspension to give a cell number of 1% of that of the blood cells. […]
The number of the cells was counted using a hemacytometer in accordance with the conventional method, and then 10^5 to 10^6 cells per sample (cell suspension) was aliquoted. […] The image was captured with a fluorescence microscope (Nikon Corp.). Protoporphyrin IX was detected with the fluorescence filter set 1, the PE-labeled anti-EpCAM antibody was detected with the fluorescence filter set 2, and the FITC-labeled anti-CD45 antibody and the FITC-labeled anti-CD34 antibody were detected with the fluorescence filter set 3.
Wavelengths for the fluorescence filter set 1: EX (excitation wavelength) 402±7.5 nm, DM 430 nm or longer, BA (fluorescence wavelength) 625±15 nm.
Wavelengths for the fluorescence filter set 2: EX (excitation wavelength) 535±25 nm, DM 575 nm or longer, BA (fluorescence wavelength) 590 nm or longer.
Wavelengths for the fluorescence filter set 3: EX (excitation wavelength) 475±15 nm, DM 505 nm or longer, BA (fluorescence wavelength) 525±10 nm. […]

## NCC(=O)CCC(=O)O [aminolevulinic acid, 5-amino-4-oxopentanoic acid]
[1]
  Positive rate (Cancer cells): 94.4%
[2]
  Positive rate (Cancer cells): 86.7%
[3]
  Positive rate (Cancer cells): 97.0%
[4]
  Positive rate (Cancer cells): 94.6%
[5]; FITC-α-CD45/CD34 antibody
  False-positive rate (using α-CD45/34): 0.0%
[5]; PC3 at 1% of blood cells, hemolyzed
  Positive rate: 85%
[5]
  False-positive rate (without using α-CD45/34): 1.1%
